Experimental data published in BindingDB's records for doi:10.1021/jm00095a009 (Dupont Pharmaceuticals, 1992).

target: Phospholipase A2 (Crotalus adamanteus); assay: Inhibitory activity against phospholipase A2 of Croatalus adamanteus

IC50, > 1000 µM:
OC(Cn1ccnc1)(c1ccc(F)cc1)c1ccc(-c2ccncc2)cc1 (stereo not drawn), Cc1ccc(C(O)(Cn2ccnc2)c2ccc(-c3ccncc3)cc2)cc1 (stereo not drawn), Oc1c(Cc2ccccc2)ccc2ccccc12
